The target of this experiment is T1, soluble guanylate cyclase (human GUCYA3/GUCYB3) overexpressed in CHO cells (Homo sapiens, UniProt Q02108+Q02153).
T1 construct: expressed in transfected cells
T1 sequence (Q02108 1-690 partner): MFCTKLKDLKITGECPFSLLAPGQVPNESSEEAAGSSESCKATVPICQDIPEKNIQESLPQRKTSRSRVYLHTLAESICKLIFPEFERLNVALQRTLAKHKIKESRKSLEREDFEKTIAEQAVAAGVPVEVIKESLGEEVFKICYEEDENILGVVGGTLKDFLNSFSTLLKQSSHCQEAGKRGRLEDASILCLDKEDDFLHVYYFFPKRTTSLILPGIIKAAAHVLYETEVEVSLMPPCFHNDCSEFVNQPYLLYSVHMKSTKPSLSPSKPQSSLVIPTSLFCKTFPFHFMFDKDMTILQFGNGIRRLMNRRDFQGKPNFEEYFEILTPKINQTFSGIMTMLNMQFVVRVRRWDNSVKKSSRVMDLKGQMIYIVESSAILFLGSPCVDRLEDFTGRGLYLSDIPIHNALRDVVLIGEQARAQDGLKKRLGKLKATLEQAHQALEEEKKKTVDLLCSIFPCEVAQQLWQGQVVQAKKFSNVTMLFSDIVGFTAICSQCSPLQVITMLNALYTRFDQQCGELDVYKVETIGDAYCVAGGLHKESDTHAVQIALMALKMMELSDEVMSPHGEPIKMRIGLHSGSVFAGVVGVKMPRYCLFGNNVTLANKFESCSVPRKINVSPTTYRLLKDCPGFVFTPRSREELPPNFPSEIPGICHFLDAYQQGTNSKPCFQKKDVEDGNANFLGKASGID
T1 sequence (Q02153 1-619): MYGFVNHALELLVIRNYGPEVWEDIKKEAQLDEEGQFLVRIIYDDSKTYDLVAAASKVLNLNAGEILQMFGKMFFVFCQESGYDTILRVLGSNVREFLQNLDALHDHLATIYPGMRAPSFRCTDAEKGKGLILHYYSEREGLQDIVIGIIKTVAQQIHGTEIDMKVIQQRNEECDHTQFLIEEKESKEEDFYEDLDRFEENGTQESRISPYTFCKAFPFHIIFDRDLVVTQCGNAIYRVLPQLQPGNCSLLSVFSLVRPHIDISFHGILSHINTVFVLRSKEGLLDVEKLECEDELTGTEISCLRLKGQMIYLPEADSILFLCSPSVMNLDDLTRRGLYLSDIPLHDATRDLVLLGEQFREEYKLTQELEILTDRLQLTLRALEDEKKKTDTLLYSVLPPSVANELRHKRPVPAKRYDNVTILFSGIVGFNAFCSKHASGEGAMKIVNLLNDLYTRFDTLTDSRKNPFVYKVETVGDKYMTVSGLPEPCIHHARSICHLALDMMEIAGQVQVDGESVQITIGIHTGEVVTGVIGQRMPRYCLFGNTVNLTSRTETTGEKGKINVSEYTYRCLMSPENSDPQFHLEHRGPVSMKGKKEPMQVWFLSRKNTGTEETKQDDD
The experiment can be described thus: CHO cellular assay (cGMP production, HTRF). Type of experiment: cell-based. As to conditions: CHO K1 clone 8E10 overexpressing human sGC, Cisbio HTRF, 1 h room temperature, 1 mM IBMX, 20 uM ODQ, minimum quantification limit 0.5 nM. An excerpt:
Chinese hamster ovary (CHO) cells overexpressing soluble guanylate cyclase were generated to test the effect of sGC activators in a cellular context. Human cDNAs for GUCYA3 (RefSeq: NM_000856.3) and GUCYB3 (RefSeq: NM_000857.1) were amplified by PCR from a HUVEC (Human Umbilical Vein Endothelial Cells) cDNA library and cloned into mammalian expression vectors. CHO K1 cells (ATCC CCL-61) were transfected using Lipofectamine 2000 following manufacturer's instructions and stably expressing clones were identified by antibiotic selection. CHO GUCY clone 8E10 was used for subsequent experiments.
Cells were seeded at a density of 3000 cells/well in white 384-well proxyplates (Perkin Elmer) and incubated overnight, then the medium was removed and cells were washed with assay buffer (HBSS, 0.1% BSA, 1 mM IBMX, 20 uM ODQ). sGC activators were serially diluted in DMSO, then diluted in assay buffer prior to adding to cells (10 ul/well, final DMSO concentration 0.5%). Cells were incubated with compounds for 1 h room temperature, then assayed for cGMP production using Cisbio cGMP HTRF kit (62GM2PEC) according to manufacturer's instructions.
The EC50s are calculated based on the amount of cGMP interpolated from the standard curve, using a 4-parameter sigmoidal dose-response.
On the technique in general: TR-FRET usually uses a lanthanide donor and a delayed reading to cut background.

For orientation: EC50 means the midpoint of the concentration-response curve. Take `Cc1cc(COc2ccc(C3CCN(C(=O)C4CC4)CC3)cc2C)c(-c2cccc(-n3ncc(C(=O)O)c3C(F)(F)F)n2)s1` [Example 5, 1-(6-(3-((4-(1-(Cyclopropanecarbonyl)piperidin-4-yl)-2-methylphenoxy)methyl)-5-methylthiophen-2-yl)pyridin-2-yl)-5-(trifluoromethyl)-1H-pyrazole-4-carboxylic acid]: the EC50 was at most 0.5 nM.

Compound `Cc1cc(C2CCN(C(=O)C3CC3)CC2)ccc1OCc1ccsc1-c1cccc(-n2ncc(C(=O)O)c2C(F)(F)F)c1` [Example 6-1, 1-(3-(3-((4-(1-(Cyclopropanecarbonyl)piperidin-4-yl)-2-methylphenoxy)methyl)thiophen-2-yl)phenyl)-5-(trifluoromethyl)-1H-pyrazole-4-carboxylic acid] displayed an EC50 of 1 nM. In other words, the single-digit nanomolar range.

On to `Cc1c(OCc2ccsc2-c2cccc(-n3ncc(C(=O)O)c3C(F)(F)F)n2)ccc(C2CCN(C(=O)C3CC3)CC2)c1C` [Example 6-2, 1-(6-(3-((4-(1-(Cyclopropanecarbonyl)piperidin-4-yl)-2,3-dimethylphenoxy)methyl)thiophen-2-yl)pyridin-2-yl)-5-(trifluoromethyl)-1H-pyrazole-4-carboxylic acid], for which a half-maximal effect (EC50) was put at 33 nM.

`Cc1cc(C2CCN(C(=O)C3CC3)CC2)ccc1OCc1cc(Cl)sc1-c1cccc(-n2ncc(C(=O)O)c2C(F)(F)F)n1` [Example 6-3, 1-(6-(5-Chloro-3-((4-(1-(cyclopropanecarbonyl)piperidin-4-yl)-2-methylphenoxy)methyl)thiophen-2-yl)pyridin-2-yl)-5-(trifluoromethyl)-1H-pyrazole-4-carboxylic acid] returned an EC50 of at most 0.5 nM.

In turn, `COc1cc(C2CCN(C(=O)C3CC3)CC2)ccc1OCc1ccsc1-c1cccc(-n2ncc(C(=O)O)c2C(F)(F)F)n1` [Example 6-4, 1-(6-(3-((4-(1-(Cyclopropanecarbonyl)piperidin-4-yl)-2-methoxyphenoxy)methyl)thiophen-2-yl)pyridin-2-yl)-5-(trifluoromethyl)-1H-pyrazole-4-carboxylic acid] came in with an EC50 of 2 nM.

Consider `COc1cc(OCc2ccsc2-c2cccc(-n3ncc(C(=O)O)c3C(F)(F)F)n2)ccc1C1CCN(C(=O)C2CC2)CC1` [Example 6-5, 1-(6-(3-((4-(1-(Cyclopropanecarbonyl)piperidin-4-yl)-3-methoxyphenoxy)methyl)thiophen-2-yl)pyridin-2-yl)-5-(trifluoromethyl)-1H-pyrazole-4-carboxylic acid], for which the EC50 amounted to 1 nM.

The compound `CCc1cc(OCc2ccsc2-c2cccc(-n3ncc(C(=O)O)c3C(F)(F)F)n2)ccc1C1CCN(C(=O)C2CC2)CC1` [Example 6-6, 1-(6-(3-((4-(1-(Cyclopropanecarbonyl)piperidin-4-yl)-3-ethylphenoxy)methyl)thiophen-2-yl)pyridin-2-yl)-5-(trifluoromethyl)-1H-pyrazole-4-carboxylic acid] displayed an EC50 of at most 0.5 nM.

On to `Cc1cc(C2CCN(C(=O)C3CC3)CC2)ccc1OCc1cc(C2CC2)sc1-c1cccc(-n2ncc(C(=O)O)c2C(F)(F)F)n1` [Example 6-7, 1-(6-(3-((4-(1-(Cyclopropanecarbonyl)piperidin-4-yl)-2-methylphenoxy)methyl)-5-cyclopropylthiophen-2-yl)pyridin-2-yl)-5-(trifluoromethyl)-1H-pyrazole-4-carboxylic acid], for which a half-maximal effect (EC50) was put at 1.4 nM.

In turn, `Cc1cc(C2CCN(C(=O)C3CC3)CC2)ccc1OCc1c(-c2cccc(-n3ncc(C(=O)O)c3C(F)(F)F)n2)sc(C)c1C` [Example 6-8, 1-(6-(3-((4-(1-(Cyclopropanecarbonyl)piperidin-4-yl)-2-methylphenoxy)methyl)-4,5-dimethylthiophen-2-yl)pyridin-2-yl)-5-(trifluoromethyl)-1H-pyrazole-4-carboxylic acid] returned an EC50 of at most 0.5 nM.

On to `CCc1c(C(=O)O)cnn1-c1cccc(-c2sccc2COc2ccc(C3CCN(C(=O)C4CC4)CC3)cc2C)n1` [Example 6-9, 1-(6-(3-((4-(1-(Cyclopropanecarbonyl)piperidin-4-yl)-2-methylphenoxy)methyl)thiophen-2-yl)pyridin-2-yl)-5-ethyl-1H-pyrazole-4-carboxylic acid], for which the EC50 was at most 0.5 nM.

As to `Cc1cc(COc2ccc(C3CC(C)(C)N(C(=O)C4CC4)C(C)(C)C3)cc2C)c(-c2cccc(-n3ncc(C(=O)O)c3C(F)(F)F)n2)s1` [Example 6-10, 1-(6-(3-((4-(1-(Cyclopropanecarbonyl)-2,2,6,6-tetramethylpiperidin-4-yl)-2-methylphenoxy)methyl)-5-methylthiophen-2-yl)pyridin-2-yl)-5-(trifluoromethyl)-1H-pyrazole-4-carboxylic acid], the EC50 is 1 nM.

In the case of `CCc1cc(OCc2cc(C)sc2-c2cccc(-n3ncc(C(=O)O)c3C(F)(F)F)n2)ccc1C1CCN(C(=O)C2CC2)CC1` [Example 6-11, 1-(6-(3-((4-(1-(Cyclopropanecarbonyl)piperidin-4-yl)-3-ethylphenoxy)methyl)-5-methylthiophen-2-yl)pyridin-2-yl)-5-(trifluoromethyl)-1H-pyrazole-4-carboxylic acid], the EC50 was at most 0.5 nM.

Consider `Cc1cc(COc2ccc(C3CCN(C(=O)C4CC4)CC3)c(C(C)C)c2)c(-c2cccc(-n3ncc(C(=O)O)c3C(F)(F)F)n2)s1` [Example 6-12, 1-(6-(3-((4-(1-(Cyclopropanecarbonyl)piperidin-4-yl)-3-isopropylphenoxy)methyl)-5-methylthiophen-2-yl)pyridin-2-yl)-5-(trifluoromethyl)-1H-pyrazole-4-carboxylic acid], for which the EC50 stood at 1 nM.

Take `Cc1cc(COc2ccc(C3CCN(C(=O)C4CC4)CC3)cc2F)c(-c2cccc(-n3ncc(C(=O)O)c3C(F)(F)F)n2)s1` [Example 6-13, 1-(6-(3-((4-(1-(Cyclopropanecarbonyl)piperidin-4-yl)-2-fluorophenoxy)methyl)-5-methylthiophen-2-yl)pyridin-2-yl)-5-(trifluoromethyl)-1H-pyrazole-4-carboxylic acid]: the EC50 was found to be 1 nM. In other words, the single-digit nanomolar range.

Regarding `Cc1cc(COc2ccc(C3CCN(C(=O)C4CC4)CC3)c(F)c2)c(-c2cccc(-n3ncc(C(=O)O)c3C(F)(F)F)n2)s1` [Example 6-14, 1-(6-(3-((4-(1-(Cyclopropanecarbonyl)piperidin-4-yl)-3-fluorophenoxy)methyl)-5-methylthiophen-2-yl)pyridin-2-yl)-5-(trifluoromethyl)-1H-pyrazole-4-carboxylic acid], the EC50 came out at 3 nM.

In turn, `CCc1cc(C2CCN(C(=O)C3CC3)CC2)ccc1OCc1cc(C)sc1-c1cccc(-n2ncc(C(=O)O)c2C(F)(F)F)n1` [Example 6-15, 1-(6-(3-((4-(1-(Cyclopropanecarbonyl)piperidin-4-yl)-2-ethylphenoxy)methyl)-5-methylthiophen-2-yl)pyridin-2-yl)-5-(trifluoromethyl)-1H-pyrazole-4-carboxylic acid] gave an EC50 of 9.5 nM.

`Cc1cc(COc2ccc(C3CCN(CC(F)(F)F)CC3)cc2C)c(-c2cccc(-n3ncc(C(=O)O)c3C(F)(F)F)n2)s1` [Example 6-16, 1-(6-(5-Methyl-3-((2-methyl-4-(1-(2,2,2-trifluoroethyl)piperidin-4-yl)phenoxy)methyl)thiophen-2-yl)pyridin-2-yl)-5-(trifluoromethyl)-1H-pyrazole-4-carboxylic acid] displayed an EC50 of 6.3 nM.

The values above are taken from US9765067B2, “Thiophen-2-yl-pyridin-2-yl-1H-pyrazole-4-carboxylic acid derivatives and the use thereof as soluble guanylate cyclase activators” (Novartis AG, priority 2014, dated 2017).
